≈ marks a conversion by molar mass, not a printed value. Calls of active or inactive are those of the source. The calls are words filed in the database; no cut-off is given here.
Legend:
Staphylococcus aureus [1] = test: Antibacterial activity against methicillin-resistant Staphylococcus aureus ATCC 43300; assay type: functional
Bacillus subtilis = test: Antibacterial activity against Bacillus subtilis; assay type: functional
Enterococcus faecalis [2] = test: Antibacterial activity against Enterococcus faecalis TISTR 459; assay type: functional
Salmonella typhi = test: Antibacterial activity against Salmonella typhi; assay type: functional, Salmonella enterica subsp. enterica serovar Typhi; details: Salmonella enterica
Shigella sonnei = test: Antibacterial activity against Shigella sonnei; assay type: functional
Pseudomonas aeruginosa [3] = test: Antibacterial activity against Pseudomonas aeruginosa; assay type: functional
Enterococcus faecalis [4] = test: Antibacterial activity against vancomycin-resistant Enterococcus faecalis ATCC 51299; assay type: functional
Staphylococcus aureus [5] = test: Induction of morphological changes in methicillin-resistant Staphylococcus aureus ATCC 43300 assessed as cell deformation incubated for 24 hrs by scanning electron microscopic method; assay type: functional, organism-based
Pseudomonas aeruginosa [6] = test: Induction of morphological changes in Pseudomonas aeruginosa assessed as cell deformation incubated for 24 hrs by scanning electron microscopic method; assay type: functional, organism-based
Staphylococcus aureus [7] = test: Synergistic antibacterial activity against methicillin-resistant Staphylococcus aureus ATCC 43300 in presence of vancomycin; assay type: functional
Staphylococcus aureus [8] = test: Synergistic antibacterial activity against methicillin-resistant Staphylococcus aureus ATCC 43300 assessed as fractional inhibitory concentration index in presence of vancomycin; assay type: functional
Pseudomonas aeruginosa [9] = test: Synergistic antibacterial activity against Pseudomonas aeruginosa in presence of vancomycin; assay type: functional
Pseudomonas aeruginosa [10] = test: Synergistic antibacterial activity against Pseudomonas aeruginosa assessed as fractional inhibitory concentration index in presence of vancomycin; assay type: functional
Staphylococcus aureus [11] = test: Induction of morphological changes in methicillin-resistant Staphylococcus aureus ATCC 43300 assessed as cell deformation at MIC incubated for 24 hrs in presence of vancomycin by scanning electron microscopic method; assay type: functional, organism-based
Pseudomonas aeruginosa [12] = test: Induction of morphological changes in Pseudomonas aeruginosa assessed as cell deformation incubated for 24 hrs in presence of vancomycin by scanning electron microscopic method; assay type: functional, organism-based

SMILES | MIC (Staphylococcus aureus [1]) | MIC (Bacillus subtilis) | MIC (Enterococcus faecalis [2]) | MIC (Salmonella typhi) | MIC (Shigella sonnei) | MIC (Pseudomonas aeruginosa [3]) | MIC (Enterococcus faecalis [4]) | Activity (Staphylococcus aureus [5]) | Activity (Pseudomonas aeruginosa [6]) | MIC (Staphylococcus aureus [7]) | fractional inhibitory concentration index (FICI) (Staphylococcus aureus [8]) | MIC (Pseudomonas aeruginosa [9]) | fractional inhibitory concentration index (FICI) (Pseudomonas aeruginosa [10]) | Activity (Staphylococcus aureus [11]) | Activity (Pseudomonas aeruginosa [12])
COc1cc2oc3cc(O)c(CC=C(C)C)c(O)c3c(=O)c2c(CC=C(C)C)c1O | 9.37 µg/mL (≈ 22.8 µM) | 75 µg/mL (≈ 183 µM) | 75 µg/mL (≈ 183 µM) | 37.5 µg/mL (≈ 91.4 µM) | 75 µg/mL (≈ 183 µM) | 4.67 µg/mL (≈ 11.4 µM) |  |  |  |  |  |  |  |  | 
COc1cc2oc3cc(O)c(O)c(CC=C(C)C)c3c(=O)c2c(O)c1CC=C(C)C | 9.37 µg/mL (≈ 22.8 µM) | 18.8 µg/mL (≈ 45.7 µM) | 300 µg/mL (≈ 731 µM) | 150 µg/mL (≈ 365 µM) | 150 µg/mL (≈ 365 µM) | 18.8 µg/mL (≈ 45.7 µM) | 300 µg/mL (≈ 731 µM) |  |  |  |  |  |  |  | 
COc1cc2oc3cc(O)c(OC)c(CC=C(C)C)c3c(=O)c2c(O)c1CC=C(C)C | 4.68 µg/mL (≈ 11 µM) | 2.34 µg/mL (≈ 5.51 µM) | 300 µg/mL (≈ 707 µM) | > 300 µg/mL | > 300 µg/mL | 9.37 µg/mL (≈ 22.1 µM) | 300 µg/mL (≈ 707 µM) |  |  |  |  |  |  |  | 
COc1cc2oc3cc(O)c(CC=C(C)C)c(O)c3c(=O)c2c(CC=C(C)C)c1OC | 18.8 µg/mL (≈ 44.2 µM) | 75 µg/mL (≈ 177 µM) | 75 µg/mL (≈ 177 µM) | 150 µg/mL (≈ 353 µM) | 150 µg/mL (≈ 353 µM) | 18.8 µg/mL (≈ 44.2 µM) |  |  |  |  |  |  |  |  | 
COc1cc2oc3cc(O)c(OC)c(CCC(C)(C)OC(C)=O)c3c(=O)c2c2c1CCC(C)(C)O2 | > 300 µg/mL | 300 µg/mL (≈ 619 µM) | > 300 µg/mL | 300 µg/mL (≈ 619 µM) | 300 µg/mL (≈ 619 µM) | 300 µg/mL (≈ 619 µM) | > 300 µg/mL |  |  |  |  |  |  |  | 
COc1c(O)cc2oc3cc4c(c(O)c3c(=O)c2c1CCC(C)(C)OC)CCC(C)(C)O4 | 9.37 µg/mL (≈ 21.2 µM) | 9.37 µg/mL (≈ 21.2 µM) | > 300 µg/mL | 300 µg/mL (≈ 678 µM) | 300 µg/mL (≈ 678 µM) | 75 µg/mL (≈ 169 µM) | > 300 µg/mL |  |  |  |  |  |  |  | 
COc1cc2oc3cc(O)c(OC)c(CC=C(C)C)c3c(=O)c2c2c1CCC(C)(C)O2 | > 300 µg/mL | 75 µg/mL (≈ 177 µM) | 75 µg/mL (≈ 177 µM) | 300 µg/mL (≈ 707 µM) | 300 µg/mL (≈ 707 µM) | 300 µg/mL (≈ 707 µM) | 150 µg/mL (≈ 353 µM) |  |  |  |  |  |  |  | 
COc1c(OS(=O)(=O)c2ccc(Br)cc2)cc2oc3cc(OS(=O)(=O)c4ccc(Br)cc4)c(CC=C(C)C)c(O)c3c(=O)c2c1CC=C(C)C | > 300 µg/mL | > 300 µg/mL | > 300 µg/mL | > 300 µg/mL | > 300 µg/mL | 300 µg/mL (≈ 354 µM) |  |  |  |  |  |  |  |  | 
CC(C)=CCc1c(O)cc2oc3cc(O)c(O)c(CC=C(C)C)c3c(=O)c2c1O | 4.68 µg/mL (≈ 11.8 µM) | 18.8 µg/mL (≈ 47.3 µM) | 9.37 µg/mL (≈ 23.6 µM) | 18.8 µg/mL (≈ 47.3 µM) | 18.8 µg/mL (≈ 47.3 µM) | 18.8 µg/mL (≈ 47.3 µM) |  |  |  |  |  |  |  |  | 
COc1c(O)cc2oc3cc4c(c(O)c3c(=O)c2c1CCC(C)(C)O)CCC(C)(C)O4 | 18.8 µg/mL (≈ 43.8 µM) | 18.8 µg/mL (≈ 43.8 µM) | > 300 µg/mL | 150 µg/mL (≈ 350 µM) | 300 µg/mL (≈ 700 µM) | 75 µg/mL (≈ 175 µM) | > 300 µg/mL | Active | Active | 4.98 µg/mL | 0.375 | 9.52 µg/mL | 0.187 | Active | Active

From ChEMBL document CHEMBL4725365, “Modified tetra-oxygenated xanthones analogues as anti-MRSA and P. aeruginosa agent and their synergism with vancomycin” (2020)
